According to patent US20160095843A1, “PYRAZOLOPYRROLIDINE DERIVATIVES AND THEIR USE IN THE TREATMENT OF DISEASE” (NOVARTIS AG, priority 2013, published 2016):
Where two headings read alike, the source gives them in different places.

Assays:
MV-4-11 cells = assay: Cell growth inhibition assay (CellTiter-Glo), MV-4-11; type: cell-based; conditions: Homo sapiens, MV4-11
Procedure: (§1) Cell Growth Inhibition Assay
(§2) The human leukemia cell lines MV-4-11, THP-1 and K-562 were employed to characterize the effect of BET inhibitors on cellular proliferation and viability. Cells were obtained from the American Type Culture Collection (ATCC) and cultured at 37° C. in a humidified 5% CO2 incubator in the following media: MV-4-11: DMEM high glucose (Animed #1-26F01-I), 10% FCS (Animed #2-01F26-I), 4 mM L-Glutamine (Animed #5-10K50), 1 mM Sodium Pyruvate (Animed # G03625P), 1× Penicillin-Streptomycin (Animed # F12478P); K-562: Iscove's MEM (Animed #1-28F16-I), 10% FCS (Animed #2-01F26-I), 4 mM L-Glutamine (Animed #5-10K50), 1× Penicillin-Streptomycin (Animed # F12478P); THP-1: RPMI-1640 (Animed #1-41F01-I), 10% FCS (Animed #2-01F26-I), 2 mM L-Glutamine (Animed #5-10K50), 10 mM HEPES (Animed #5-31F100), 1 mM Sodium Pyruvate (Animed # G03625P), 1× Penicillin-Streptomycin (Animed # F12478P). The AML lines MV-4-11 and THP-1 are very sensitive to BET inhibitors and show massive cell death upon BET inhibition (Zuber et al., Nature, 478 (2011), 524-8). Compound-mediated suppression of cell proliferation/viability was assessed by quantification of cellular ATP levels using the CellTiter-Glo (CTG) reagent (Promega). Briefly, cells were seeded in 20 μl fresh medium into 384-well plates, followed by addition of 5 μL medium containing compound dilutions at 5-fold their final intended concentration. Dose-response effects were assessed by 3-fold serial dilutions of the test compound, starting at 10 μM. Following incubation of the cells for 4 days at 37° C. and 5% CO2, the effect of inhibitors on cell viability was quantified following addition of 20 μl CTG and luminescence quantification (integration time: 100 ms) as per vendor manual, using a correspondingly equipped Tecan M200 multi-mode platereader (TECAN, Switzerland). For data analysis, the assay background value determined in wells containing medium, but no cells, was subtracted from all data points. To enable differentiation of cytotoxic from cytostatic compounds, the number of viable cells is assessed relative to that observed at the time of compound addition using a separate cell plate (day 0). The effect of a particular test compound concentration on cell proliferation/viability is expressed as percentage of the background- and day 0-corrected luminescence reading obtained for cells treated with vehicle only (DMSO, 0.1% final concentration), which is set as 100%, whereas that luminescence reading for wells containing medium is set as −100%. Compound concentrations leading to half-maximal (1050) and total growth inhibition (TGI) were determined using standard four parameter curve fitting.

THP-1 cells = assay: Cell growth inhibition assay (CellTiter-Glo), THP-1; type: cell-based; conditions: Homo sapiens
Procedure: as §1, §2

K-562 cells = assay: Cell growth inhibition assay (CellTiter-Glo), K-562; type: cell-based, human
Procedure: as §1, §2

GI50 (MV-4-11 cells) [nM]	GI50 (THP-1 cells) [nM]	GI50 (K-562 cells; Homo sapiens, K562) [nM]	Compound	IC (TGI) (MV-4-11 cells) [nM]	IC (TGI) (THP-1 cells) [nM]	IC (TGI) (K-562 cells; Homo sapiens, K562) [nM]	IC (TGI) (K-562 cells) [nM]
97.4	198	424	COc1ncc(-n2nc(C)c3c2C(=O)N(c2cc(C)c(=O)n(C)c2)C3c2ccc(Cl)cc2)c(OC)n1 (racemic) [Example 52, 4-(4-chlorophenyl)-1-(2,4-dimethoxypyrimidin-5-yl)-5-(1,5-dimethyl-6-oxo-1,6-dihydropyridin-3-yl)-3-methyl-4,5-dihydropyrrolo[3,4-c]pyrazol-6(1H)-one]	156	345	> 10000	
95.8	142	459	Cc1nn(-c2ccnn2C)c2c1C(c1ccc(Cl)cc1)N(c1cc(C)c(=O)n(C)c1)C2=O (racemic) [Example 74, 4-(4-chlorophenyl)-5-(1,5-dimethyl-6-oxo-1,6-dihydropyridin-3-yl)-3-methyl-1-(1-methyl-1H-pyrazol-5-yl)-4,5-dihydropyrrolo-[3,4-c]pyrazol-6(1H)-one]	103	327	> 10000	
14.5	22.6	98.9	Cc1cc(N2C(=O)c3c(c(C4CC4)nn3C)C2c2ccc(Cl)cc2)cn2c(C)nnc12 (racemic) [Example 129, 4-(4-chlorophenyl)-3-cyclopropyl-5-(3,8-dimethyl-[1,2,4]triazolo[4,3-a]pyridin-6-yl)-1-methyl-4,5-dihydropyrrolo-[3,4-c]pyrazol-6(1H)-one]				
52.3	107	427	COCc1nn(C2CC2)c2c1C(c1ccc(Cl)cc1)N(c1cc(C)c(=O)n(C)c1)C2=O (racemic) [Example 132, 4-(4-chlorophenyl)-1-cyclopropyl-5-(1,5-dimethyl-6-oxo-1,6-dihydropyridin-3-yl)-3-(methoxymethyl)-4,5-dihydropyrrolo[3,4-c]pyrazol-6(1H)-one]	99.5	233	> 10000	
71.1	103	632	Cc1c2c(nn1C)C(=O)N(c1cc(Cl)c(=O)n(C)c1)[C@@H]2c1ccc(Cl)cc1 [Example 7, (R)-5-(5-chloro-1-methyl-6-oxo-1,6-dihydropyridin-3-yl)-4-(4-chlorophenyl)-2,3-dimethyl-4,5-dihydropyrrolo-[3,4-c]pyrazol-6(2H)-one]				
75.8	101	624	Cc1cc(N2C(=O)c3nn(C)cc3[C@H]2c2ccc(Cl)cc2)cn(C)c1=O [Example 16, (R)-4-(4-chlorophenyl)-5-(1,5-dimethyl-6-oxo-1,6-dihydropyridin-3-yl)-2-methyl-4,5-dihydropyrrolo-[3,4-c]pyrazol-6(2H)-one]				
3330	> 10000	> 10000	Cc1c2c(nn1C1CC1)C(=O)N(c1cc(Cl)c(=O)n(C)c1)[C@H]2c1ccc(Cl)cc1 [Example 18, (S)-5-(5-chloro-1-methyl-6-oxo-1,6-dihydropyridin-3-yl)-4-(4-chlorophenyl)-2-cyclopropyl-3-methyl-4,5-dihydropyrrolo[3,4-c]pyrazol-6(2H)-one]				
25.8	74.6	242	Cc1c2c(nn1C1CC1)C(=O)N(c1cc(Cl)c(=O)n(C)c1)[C@@H]2c1ccc(Cl)cc1 [Example 19, (R)-5-(5-chloro-1-methyl-6-oxo-1,6-dihydropyridin-3-yl)-4-(4-chlorophenyl)-2-cyclopropyl-3-methyl-4,5-dihydropyrrolo-[3,4-c]pyrazol-6(2H)-one]				>10000
22.3	36.6	266	Cc1cc(N2C(=O)c3nn(C4CC4)c(C)c3[C@H]2c2ccc(Cl)cc2)cn(C)c1=O [Example 21, (R)-4-(4-chlorophenyl)-2-cyclopropyl-5-(1,5-dimethyl-6-oxo-1,6-dihydropyridin-3-yl)-3-methyl-4,5-dihydropyrrolo[3,4-c]pyrazol-6(2H)-one]				
204	297	1500	Cc1cc(N2C(=O)c3n[nH]cc3C2c2ccc(Cl)cc2)cn(C)c1=O (centres unmarked) [Example 26, 4-(4-chlorophenyl)-5-(1,5-dimethyl-6-oxo-1,6-dihydropyridin-3-yl)-4,5-dihydropyrrolo[3,4-c]pyrazol-6(2H)-one]				
55.9	120	463	Cc1[nH]nc2c1C(c1ccc(Cl)cc1)N(c1cc(C)c(=O)n(C)c1)C2=O (centres unmarked) [Example 27, 4-(4-chlorophenyl)-5-(1,5-dimethyl-6-oxo-1,6-dihydropyridin-3-yl)-3-methyl-4,5-dihydropyrrolo[3,4-c]pyrazol-6(2H)-one]				
82.8	162	601	Cc1cc(N2C(=O)c3c(cnn3C3CC3)C2c2ccc(Cl)cc2)cn(C)c1=O (centres unmarked) [Example 34, 4-(4-chlorophenyl)-1-cyclopropyl-5-(1,5-dimethyl-6-oxo-1,6-dihydropyridin-3-yl)-4,5-dihydropyrrolo[3,4-c]pyrazol-6(1H)-one]				
105	239	905	Cn1cc(N2C(=O)c3c(cnn3C3CC3)C2c2ccc(Cl)cc2)cc(Cl)c1=O (centres unmarked) [Example 35, 5-(5-chloro-1-methyl-6-oxo-1,6-dihydropyridin-3-yl)-4-(4-chlorophenyl)-1-cyclopropyl-4,5-dihydropyrrolo[3,4-c]pyrazol-6(1H)-one]				
53.4	103	430	Cc1cc(N2C(=O)c3c(cnn3C(C)C)C2c2ccc(Cl)cc2)cn(C)c1=O (centres unmarked) [Example 36, 4-(4-chlorophenyl)-5-(1,5-dimethyl-6-oxo-1,6-dihydropyridin-3-yl)-1-isopropyl-4,5-dihydropyrrolo-[3,4-c]pyrazol-6(1H)-one]				
217	308	658	Cn1cc(N2C(=O)c3c(c(C(F)(F)F)nn3C3CC3)C2c2ccc(Cl)cc2)cc(Cl)c1=O (centres unmarked) [Example 44, 5-(5-chloro-1-methyl-6-oxo-1,6-dihydropyridin-3-yl)-4-(4-chlorophenyl)-1-cyclopropyl-3-(trifluoromethyl)-4,5-dihydropyrrolo[3,4-c]pyrazol-6(1H)-one]				
251	357	994	Cc1cc(N2C(=O)c3c(c(C(F)(F)F)nn3C3CC3)C2c2ccc(Cl)cc2)cn(C)c1=O (centres unmarked) [Example 45, 4-(4-chlorophenyl)-1-cyclopropyl-5-(1,5-dimethyl-6-oxo-1,6-dihydropyridin-3-yl)-3-(trifluoromethyl)-4,5-dihydropyrrolo[3,4-c]pyrazol-6(1H)-one]				
115	177	370	COc1ncc(-n2nc3c(c2C(C)C)C(c2ccc(Cl)cc2)N(c2cc(C)c4onc(C)c4c2)C3=O)c(OC)n1 (centres unmarked) [Example 46, 4-(4-chlorophenyl)-2-(2,4-dimethoxypyrimidin-5-yl)-5-(3,7-dimethylbenzo[d]-isoxazol-5-yl)-3-isopropyl-4,5-dihydropyrrolo-[3,4-c]pyrazol-6(2H)-one]				>10000
113	414	709	COc1ncc(-n2nc3c(c2C(F)(F)F)C(c2ccc(Cl)cc2)N(c2cc(Cl)c(=O)n(C)c2)C3=O)c(OC)n1 (centres unmarked) [Example 47, 5-(5-chloro-1-methyl-6-oxo-1,6-dihydropyridin-3-yl)-4-(4-chlorophenyl)-2-(2,4-dimethoxypyrimidin-5-yl)-3-(trifluoromethyl)-4,5-dihydropyrrolo[3,4-c]pyrazol-6(2H)-one]				
24.1	29	120	Cc1nn(C2CC2)c2c1[C@@H](c1ccc(Cl)cc1)N(c1cc(C)c(=O)n(C)c1)C2=O [Example 49, (R)-4-(4-chlorophenyl)-1-cyclopropyl-5-(1,5-dimethyl-6-oxo-1,6-dihydropyridin-3-yl)-3-methyl-4,5-dihydropyrrolo-[3,4-c]pyrazol-6(1H)-one]				
51.9	72.5	318	Cc1nn(C2CC2)c2c1[C@@H](c1ccc(Cl)cc1)N(c1cc(Cl)c(=O)n(C)c1)C2=O [Example 51, (R)-5-(5-chloro-1-methyl-6-oxo-1,6-dihydropyridin-3-yl)-4-(4-chlorophenyl)-1-cyclopropyl-3-methyl-4,5-dihydropyrrolo-[3,4-c]pyrazol-6(1H)-one]				
